Measurements from patent US9663478B2, “Benzotriazine oxides as drugs targeting Mycobacterium tuberculosis” (priority 2011, dated 2017).
In brackets after ≈: the same amount, converted by molar mass. Read-outs that look alike come from different tables or passages of the source.

What was measured:
[1] = tested on: NRP Mtb H37Rv cells; assay: Low-oxygen recovery assay (LORA) MIC; assay type: cell-based, Mycobacterium tuberculosis; settings: for MIC: Mycobacterium tuberculosis, H37RV, read-out: LORA MIC - ITR
[2] = tested on: Vero cells
[3] = tested on: Mtb H37Rv; assay: TB MIC - ITR (UIC), Institute for Tuberculosis Research; assay type: cell-based, Mycobacterium tuberculosis; settings: Tables 1-4; for MIC: Mycobacterium tuberculosis, H37RV, read-out: TB MIC - ITR
[4] = tested on: Mtb H37Rv; assay: TB MIC - SRI, resazurin-based microplate assay; assay type: cell-based, Mycobacterium tuberculosis; settings: for MIC: Mycobacterium tuberculosis, H37RV
[5] = Tables 1-4 and text, read-out: TB MIC - SRI

| SMILES | MIC ([1]; NRP Mtb, Tables 1-4 and text) | Vero Tox CC50 ([2]; African green monkey, 72 h) | MIC [3] | MIC [4, 5] | LORA MIC - ITR ([1]; NRP Mtb, Tables 1-4 and text) | Vero Tox CC50 [2] | TB MIC - ITR [3] | MIC, H37Rv ([4]; Table 5) | TB MIC - SRI ([4]; Tables 1-4 and text) | MIC [1] | MIC ([4]; Table 5, read-out: MIC, H37Rv) |
| --- | --- | --- | --- | --- | --- | --- | --- | --- | --- | --- | --- |
| CCNc1n[n+]([O-])c2cc(Br)ccc2[n+]1[O-] [Compound 15ca, 7-bromo-3-(ethylamino)benzo[e][1,2,4]triazine 1,4-dioxide] | 0.46 µg/mL (≈ 1.61 µM) | 4.2 µg/mL | 0.49 µg/mL (≈ 1.72 µM) | 0.62 µg/mL (≈ 2.17 µM) |  |  |  |  |  |  |  |
| [O-][n+]1nc(NC2CCC2)[n+]([O-])c2ccc(Br)cc21 [Compound 15cd, 7-bromo-3-(cyclobutylamino)benzo[e][1,2,4]triazine 1,4-dioxide] | 0.41 µg/mL (≈ 1.32 µM) | 3.8 µg/mL | 0.46 µg/mL (≈ 1.48 µM) | 0.15 µg/mL (≈ 0.482 µM) |  |  |  |  |  |  |  |
| [O-][n+]1nc(NC2CCCC2)[n+]([O-])c2ccc(Br)cc21 [Compound 15ce, 7-bromo-3-(cyclopentylamino)benzo[e][1,2,4]triazine 1,4-dioxide] | 0.46 µg/mL (≈ 1.41 µM) | 18 µg/mL | 0.35 µg/mL (≈ 1.08 µM) | 0.15 µg/mL (≈ 0.461 µM) |  |  |  |  |  |  |  |
| [O-][n+]1nc(N[C@@H]2C[C@H]3CC[C@@H]2C3)[n+]([O-])c2ccc(Br)cc21 [Compound 15cm, 3-((1R,2R,4S)-bicyclo[2.2.1]heptan-2-ylamino)-7-bromobenzo[e][1,2,4]triazine 1,4-dioxide] | 0.41 µg/mL (≈ 1.17 µM) | 0.80 µg/mL | 0.36 µg/mL (≈ 1.03 µM) | 0.31 µg/mL (≈ 0.883 µM) |  |  |  |  |  |  |  |
| COc1ccc2c(c1)[n+]([O-])nc(NC1CCC1)[n+]2[O-] [Compound 15dd, 3-(cyclobutylamino)-7-methoxybenzo[e][1,2,4]triazine 1,4-dioxide] | 0.9 µg/mL (≈ 3.43 µM) | 9.8 µg/mL | 0.96 µg/mL (≈ 3.66 µM) | 0.62 µg/mL (≈ 2.36 µM) |  |  |  |  |  |  |  |
| COc1ccc2c(c1)[n+]([O-])nc(N[C@@H]1C[C@H]3CC[C@@H]1C3)[n+]2[O-] [Compound 15dm, 3-((1R,2R,4S)-bicyclo[2.2.1]heptan-2-ylamino)-7-methoxybenzo[e][1,2,4]triazine 1,4-dioxide] | 1.6 µg/mL (≈ 5.29 µM) | >50 µg/mL | 0.97 µg/mL (≈ 3.21 µM) | 0.62 µg/mL (≈ 2.05 µM) |  |  |  |  |  |  |  |
| CCNc1n[n+]([O-])c2cccc(C)c2[n+]1[O-] [Compound 15ea, Ethyl-(5-methyl-1,4-dioxy-benzo[1,2,4]triazin-3-yl)-amine] |  |  |  |  | 0.48 µg/mL | 22 µg/mL | 0.51 µg/mL | 0.62 µg/mL (≈ 2.82 µM) | 0.62 µg/mL |  |  |
| Cc1cccc2c1[n+]([O-])c(NC1CCC1)n[n+]2[O-] [Compound 15ed, 3-(cyclobutylamino)-5-methylbenzo[e][1,2,4]triazine 1,4-dioxide] | 0.43 µg/mL (≈ 1.75 µM) | 22 µg/mL | 0.47 µg/mL (≈ 1.91 µM) | 0.31 µg/mL (≈ 1.26 µM) |  |  |  |  |  |  |  |
| [O-][n+]1nc(NC2CCC2)[n+]([O-])c2cc3c(cc21)CCC3 [Compound 15fd, Cyclobutyl-(5,8-dioxy-2,3-dihydro-1H-5,6,8-triaza-cyclopenta[b]naphthalen-7-yl)-amine] |  |  |  |  | 0.44 µg/mL | 34 µg/mL | 0.96 µg/mL | 0.62 µg/mL (≈ 2.28 µM) | 0.62 µg/mL |  |  |
| [O-][n+]1nc(N[C@@H]2C[C@H]3CC[C@@H]2C3)[n+]([O-])c2cc3c(cc21)CCC3 [Compound 15fm, 3-((1R,2R,4S)-bicyclo[2.2.1]heptan-2-ylamino)-7,8-dihydro-6H-indeno[5,6-e][1,2,4]triazine 1,4-dioxide] | 0.36 µg/mL (≈ 1.15 µM) | >50 µg/mL | 0.93 µg/mL (≈ 2.98 µM) | 1.2 µg/mL (≈ 3.84 µM) |  |  |  |  |  |  |  |
| COc1cc2c(cc1C)[n+]([O-])nc(NC1CCC1)[n+]2[O-] [Compound 15gd, 3-(cyclobutylamino)-6-methoxy-7-methylbenzo[e][1,2,4]triazine 1,4-dioxide] | 2.9 µg/mL (≈ 10.5 µM) | >50 µg/mL | 5.1 µg/mL (≈ 18.5 µM) | 2.5 µg/mL (≈ 9.05 µM) |  |  |  |  |  |  |  |
| COc1cc2c(cc1C)[n+]([O-])nc(N[C@@H]1C[C@H]3CC[C@@H]1C3)[n+]2[O-] [Compound 15gm, 3-((1R,2R,4S)-bicyclo[2.2.1]heptan-2-ylamino)-6-methoxy-7-methylbenzo[e][1,2,4]triazine 1,4-dioxide] | 3.5 µg/mL (≈ 11.1 µM) | >50 µg/mL | 5.6 µg/mL (≈ 17.7 µM) | 5 µg/mL (≈ 15.8 µM) |  |  |  |  |  |  |  |
| CCN(CC)c1n[n+]([O-])c2ccccc2[n+]1[O-] [Compound 17o, 3-(diethylamino)benzo[e][1,2,4]triazine 1,4-dioxide] | 1.3 µg/mL (≈ 5.55 µM) | 12 µg/mL | 0.46 µg/mL (≈ 1.96 µM) | 0.31 µg/mL (≈ 1.32 µM) |  |  |  |  |  |  |  |
| [O-][n+]1nc(N2CCOCC2)[n+]([O-])c2ccccc21 [Compound 17p, 3-morpholinobenzo[e][1,2,4]triazine 1,4-dioxide] | 19 µg/mL (≈ 76.5 µM) | 5.4 µg/mL | 3.7 µg/mL (≈ 14.9 µM) | 2.5 to 5 µg/mL (≈ 10.1 to 20.1 µM) |  |  |  |  |  |  |  |
| [O-][n+]1nc(N2CCCCC2)[n+]([O-])c2cc3c(cc21)CCC3 [Compound 20r, 3-(piperidin-1-yl)-7,8-dihydro-6H-indeno[5,6-e][1,2,4]triazine 1,4-dioxide] |  | 21 µg/mL | 0.4 µg/mL (≈ 1.4 µM) |  |  |  |  |  |  | 0.49 µg/mL (≈ 1.71 µM) | 0.62 µg/mL (≈ 2.17 µM) |
